# From patent publication US7217686B1, “DNA sequence encoding oncofetal ferritin protein” (Gardino Investment N.V., priority 1999, dated 2007)
# “And” between values parts separate entries of the source, which are not always exact repeats. Identical values can stand only once.
# Key:
# [1] = tested on: activated human lymphocytes in MLR; assay: Cytokine secretion by activated human lymphocytes in mixed lymphocyte culture (ELISA); format: cell-based; conditions: 24 h culture supernatant
# Method: In-vitro activation of human lymphocytes without and with C48/OFF1 treatment was carried out in a mixed lymphocyte culture (MLC). Human peripheral blood lymphocytes ([…]) (responder cells) were incubated with non-related Mitomycin C (40 μgr/ml) treated lymphocytes (2×10^6/ml) in RPMI-1640 medium containing 10% Fetal Calf serum and antibiotics. The cultures were incubated for 24 h in a humidified incubator at 37° C. with 5% CO2. Supernatants were collected and the concentration of the secreted cytokines were measured using an ELISA assay kit. The level of IL-2 R, and interferon (Th1 cytokines) and IL-6 and IL-10 (TH2 cytokines) were determined.
# [2] = tested on: zymosan induced arthritis (ZIA); assay: Zymosan induced arthritis (ZIA) in mice; format: in vivo; conditions: for Knee swelling Mean +/− SD (n = 10): C48 30 μg/per mouse daily i.p. from day 1 up to 10
# Method: Animals: Female ICR mice were obtained from our institution's breeding facilities and were fed a standard diet and tap water ad libidum. Induction of zymosan-induced arthritis: A homogeneous suspension of 25 mg zymosan A (Saccharomyces cerevisiae), dissolves in 1 ml endotoxin-free saline, was obtained by boiling twice followed by sonic emulsification. Arthritis was induced by intrarticular injection of 0.5 mgr/20 l zymosan into each right and left knees. Assessment of ZIA: Mice were evaluated at 14 days post zymosan injections: Swelling was quantitated by measuring the thickness of the knees with a caliper, at 14th day post ZIA and compared to the thickness prior to ZIA. Histologic processing and analysis of knee joints: Knee joints were dissected, fixed, decalcified, dehydrated, and embedded in paraffin. Standard frontal section of 7 μm were prepared and stained with eosin-hematoxilin. Disease severity was assessed by calculation of arthritic index as follows: • Semiquantitative assessment of pathologic findings was performed using a grading system, consisting of five grades. Grade 0: normal synovia; grade 1: 1–5 cellular infiltrates in the microscopic field; grade 2: 6–20 cellular infiltrates; grade 3: 21–50 infiltrates; grade 4: more than […]. • Lymphocytic nodules: grade 1: 1–3 nodules per sectio; grade 2: 4–10 nodules; grade 3: 11–20 nodules; grade 4: more than 20 nodules. • Histiocytes grading: grade 1: 1–10 cell; grade 2: 11–20 cells; grade 3: 21–30 cells; grade 4: more than 30 cells. • Synovial thickness: grade 0: presence of 1 layer of synovial cells; grade 2: 2–3 layers; grade 3: 4–6 layers; grade 4: more than 6 layers. The presence of pannus was considered evidence of severe synovitis. Treatment with C48 (OFF1): Three groups of 10 mice each, were treated by daily intraperitoneal injections of either PBS (control group) or C48 (30 μg/per mouse). Statistical analysis: The significance of comparisons between means was assessed by Student's t-test. Effect of C48 administration on ZIA: Two group of mice (n=10 each) were treated by daily i.p. injections from day 1 up to 10 (10 days), or from day 3 to 10 (7 days) (C48 delayed) following intraarticular zymosan injections. Groups of ZIA mice (n=10) which received daily injections of PBS served as control.
# [3] = tested on: human bone marrow progenitor CFU-GM; assay: CFU-GM colony assay with normal human bone marrow mononuclear cells; format: cell-based; conditions: Cond. Med. 5% vol/vol, p43 (PLF) 1 μg/ml, GM-CSF 15 ng/ml; for number of CFU-GM colonies: scored after 14 days
# Method: Bone marrow samples from 11 healthy volunteer donors were processed by density gradient separation using […] (Sigma diagnostics, St. Louis, Mo., USA) to obtain a purified population of mononuclear cells. Colony assays were performed in a plating medium containing final concentrations of 0.92% methyl cellulose (M-281 powder, 4,000 centipoise, Fisher Scientific Co., Fair Lawn, N.J., USA), rehydrated in Iscove's modified Dulbecco's medium containing 36 mM sodium bicarbonate (Gibco, Grand Island, N.Y., USA), 30% fetal bovine serum (FBS) (HyClone, Logan, Utah, USA) 0.292 mg/ml glutamine, 100 U/ml penicillin and 0.01 mg/ml streptomycin (Biological Industries, Beit Haemek, Israel). Growth factors used were […] GM-CSF Leucomax (Sandoz Pharma) and 5% vol/vol human phytohemagglutinin-M (Difco Laboratories, Detroit, Mich., USA)-induced conditioned medium (Cond. Med.) p43 (PLF) was added at concentration of 1 μg/mL and in neutralization experiments, p43 (PLF) was preincubated with 10× excess of CM-H-9 MoAb at 37° C. for 30 min and the complex added to the assay as above. The colony assay medium contained 10^5 mononuclear cells/ml and each 1 ml was plated into triplicate wells (333 μl/well) of a 24 well tissue culture plate (Greiner, Germany). Water was added to spaces between cells to maximize humidity during incubation of the cultures. The cultures were incubated at 37° C. in 5% CO2 and 55% relative humidity. Plates were scored after 14 days for colonies containing more than 50 cells.
substance,measurement,setting,value
"C48/OFF 1: deletion construct encoding the unique C-terminal 48 aa of OFF1, expressed in E. coli as GST fusion protein (FPSPISPSPSCWHHYTTNRPQPQHHLLRPRRRKRPHSIPTPILIFRSP; left off: a dimerising Fc or GST)",IL-6 secreted in MLR,[1],"170,779 +/− 58,800 u/mL"
same,IL-10 secreted in MLR,[1],1125 +/− 332 u/mL
same,sIL-2R secreted in MLR,[1],50 u/mL
same,γ Interferon secreted in MLR,[1],46 u/mL
same,Knee swelling Mean +/− SD (n = 10),[2]; 14 days post zymosan,0.24 mm
same,Knee swelling Mean +/− SD (n = 10),"[2]; 14 days post zymosan, listed as C48",0.24 +/− 0.56 mm
same,"Knee swelling Mean +/− SD (n = 10), C48 delayed","[2]; C48 30 μg/per mouse daily i.p. from day 3 to 10, 14 days post zymosan, listed as C48",0.33 mm and 0.33 +/− 0.57 mm
same,Arthritis Score Mean +/− SD (n = 10),"[2]; C48 daily i.p. from day 1 up to 10, mean grades of pathological findings",1 +/− 0.83
same,"Arthritis Score Mean +/− SD (n = 10), C48 delayed","[2]; C48 daily i.p. from day 3 to 10, mean grades of pathological findings",0.9 +/− 0.83
same,severity of arthritis,"[2]; C48 from day 1 to 10 or from day 3 to 10, compared with PBS",very mild
"GM-CSF: GM-CSF Leucomax (Sandoz Pharma), growth factor used for comparison [reference compound]",MEDIAN number of CFU-GM colonies,[3]; 11 donors,144
same,RANGE of number of CFU-GM colonies,[3]; 11 donors,50–884
same,mean number of CFU-GM colonies (AVG.),[3]; 11 donors,276+/−257 and 276.2
same,number of CFU-GM colonies,[3]; Bone Marrow No. 1,144
same,number of CFU-GM colonies,[3]; Bone Marrow No. 2,396
same,number of CFU-GM colonies,[3]; Bone Marrow No. 3,114
same,number of CFU-GM colonies,[3]; Bone Marrow No. 4,66
same,number of CFU-GM colonies,[3]; Bone Marrow No. 5,136
same,number of CFU-GM colonies,[3]; Bone Marrow No. 6,250
same,number of CFU-GM colonies,[3]; Bone Marrow No. 7,50
same,number of CFU-GM colonies,[3]; Bone Marrow No. 8,74
same,number of CFU-GM colonies,[3]; Bone Marrow No. 9,520
same,number of CFU-GM colonies,[3]; Bone Marrow No. 10,884
same,number of CFU-GM colonies,[3]; Bone Marrow No. 11,405
